Tests used:
[1] = test system: C. novyi-NT; experiment: Quantification of C. novyi-NT in tumors by real-time PCR; assay type: in vivo, C. novyi-NT in mice bearing HCT116 xenografts; settings: versus spores without drug; HCT116 xenografts; SD printed +/−0.08 (HTI-286), +/−0.3 (docetaxel)
Method: Mice bearing HCT116 xenografts were treated with C. novyi-NT spores with or without HTI-286 (1.7 mg/kg) as described above. Following euthanasia 24-48 hr later, tumors were harvested, weighed, minced, and Dounce-homogenized. Genomic DNA was isolated using the Qiagen Genomic DNA Buffer Set and Genomic-tip 100/G. 25 ng of DNA was used in a PCR using the conditions described in (Vogelstein and Kinzler, 1999) The following primers specific for the C. novyi-NT phospholipase C gene were used: 5′-[…] (SEQ ID NO:1) and 5′-[…] (SEQ ID NO:2). No detectable primer dimers formed and no nonspecific amplification of mouse or xenograft genomic DNA occurred with these primers and PCR conditions. Real-time PCR was performed using an iCycler, and threshold cycle numbers were calculated using the iCycler Optical system interface software (Bio-Rad Lab, Hercules, Calif.). Averages of the threshold cycle number (Ct) of triplicate measurements per tumor were obtained, and three different tumors were studied for each treatment group. The results were expressed as the difference between the Ct of the treated tumor and the Ct of untreated controls, normalized to tumor weight.
Second, we directly tested the size of bacterial populations within tumors by measuring the number of bacteria at various times following intravenous injection of C. novyi-NT spores into mice bearing HCT116 xenografts. […]

[2] = Weight loss after COBALT; assay type: in vivo, nude mice; settings: drug dose 50.0 mg/kg; maximum average weight loss relative to weight one day prior to treatment; HCT116 xenografts
Description: (§1) All animal protocols were designed in accordance with the Guide for the Care and Use of Laboratory Animals (NIH Publication 86-23) and were approved by the Johns Hopkins University Institutional Animal Care and Use Committee. Six to eight week old mice were implanted subcutaneously on one flank with 3 to 6 million cancer cells. Establishment of tumors of 150 to 500 mm3 took 8 to 21 days, depending on the cell type. C. novyi-NT spores (300×106) and anti-microtubule agents were generally administered by a single intravenous injection through the tail vein in a total volume of 300 to 500 ul phosphate-buffered saline (PBS). Quantitative assessment of tumor growth was performed by measuring subcutaneous tumor grafts (major and minor axis) using electronic calipers. Tumor volume was calculated using the equation: length×width2×0.5. Progression free survival was defined as the length of time following treatment before any increase in tumor volume was observed. Mice were considered “cured” if no tumor was evident three months after treatment. Animals were weighed at least twice a week and carefully observed for signs of toxicity every day for the first week following treatment and then twice a week thereafter. At least five mice were used for each treatment arm described in the Experimental Results.
(§2) This toxicity was observed only when the combination of C. novyi-NT spores and the drugs was administered and not with either the bacteria or the drugs alone. […] Though major tumor regressions were common, few mice died as a result of therapy (Table 2) No deaths occurred after treatment with the microtubule stabilizers plus C. novyi-NT, while 4% to 8% of mice treated with microtubule destabilizers plus C. novyi-NT died. The only other toxicity observed was transient weight loss (Table 3). Mice treated with the drugs alone lost ˜5 to 10% of their body weight within 7 days, while weight loss after treatment with C. novyi-NT plus these drugs varied from 8% to 18%. All weights recovered to pre-treatment levels within two weeks.

[3] = test system: HCT116 human colorectal cancer cells; experiment: Tumorigenicity assay, HCT116 xenografts in nude mice; assay type: in vivo; settings: for Effect with C. novyi-NT / Effect alone: nude mice; for Effect alone: agent alone
Description: as §1
The timing, route, and dose of agents are critical for the success of any experimental therapy. When two agents are combined, the number of variables that must be tested increases exponentially. To simplify interpretation of the comparisons between various anti-microtubule agents, pilot studies with representative drugs were performed.
Eighteen agents known to interact with microtubules were each tested in this manner in nude mice harboring xenografts of HCT116 human colorectal cancer cells. At least five mice harboring tumors of 150 to 500 mm3 in size were used for each experimental arm. Two classes of responses were noted. One type of response was characterized by a rapid hemorrhagic necrosis, observed only with agents that inhibited microtubule […] (FIG. 1A, B). The other type of response was characterized by a slow regression, observed with agents that stabilized microtubules (FIG. 2A, B).

[4] = Mortality following COBALT; assay type: in vivo, nude mice; settings: deaths within one week, pooled xenograft models
Description: as §1, §2

[5] = test system: tumor blood flow in HCT116 xenografts; experiment: Assessment of blood perfusion (Hoechst 33342) in HCT116 xenografts; assay type: in vivo, mice; settings: HTI-286 1.7 mg/kg or docetaxel 50 mg/kg iv, 3 and 24 hr after treatment
Method: Three or 24 hours after treatment, mice were intravenously injected with Hoechst 33342 (40 mg/kg) and euthanized two minutes later. Tumors were cryosectioned and viewed by fluorescence microscopy after counter-staining with acridine orange (AO). Endothelial cells are stained blue when they have taken up the Hoechst 33342 dye. Adjacent sections were stained with MECA-32 monoclonal antibody, a vascular endothelium-specific marker. Arrows point towards normal blood vessels unaffected by HTI-286 treatment in overlying skin.
Mice bearing HCT116 xenografts of 300 to 500 mm3 were injected intravenously with anti-microtubule agents. At various times thereafter, they were intravenously injected with Hoechst 33342 (40 mg/kg), then euthanized two minutes later by CO2 narcosis. Tumors were fixed in Tissue-Tek OTC compound (Sakura Finetek, Torrance, Calif.) and stored at −80° C. Frozen sections 10 microns in thickness were prepared with a Leica Microsystems cryostat and counterstained with acridine orange, 7.5 ug/ml, in PBS for 5 minutes. […] At least three sections of each of three tumors, representing middle and distal parts of the tumor, were examined under fluorescence microscopy for each agent tested, and representative results are illustrated in the figures. […]

[6] = test system: Glucose Transporter-1 (Glut-1); experiment: Immunohistochemistry for Glut-1 (hypoxia marker) in HCT116 xenografts; assay type: in vivo, mice; settings: HTI-286 1.7 mg/kg or docetaxel 50 mg/kg iv, 6 hr after treatment
Method: Mice were euthanized six hours after treatment. Tumors were sectioned and H & E stained. Adjacent sections were stained for Glut-1 expression, a marker for hypoxia. Cells positive for Glut-1 appear brown. Arrows indicate examples of hemorrhage.
Paraffin sections were deparaffinized, incubated with proteinase K (Invitrogen), heated at 95° C. for 20 min in citrate buffer (pH 6), and treated with peroxidase blocking reagent (Dako). Sections were incubated with a monoclonal antibody against Glucose Transporter-1 (Glut-1, Dako) followed by a biotin-conjugated secondary antibody (Pierce). A third layer consisting of HRP-conjugated anti-biotin (DAKO) was followed by diaminobenzidine (Sigma) staining. Sections were counterstained with eosin.
Two independent tests of this hypothesis were performed. First, we directly assessed hypoxia within tumors by staining with an antibody to Glucose Transporter-1 (Glut-1). Glut-1 has been extensively studied and shown to be specifically expressed only in hypoxic regions (Airley et al., 2001).

[7] = test system: HCT116, HuCC-T1, HT-29, SW480, B16 and DLD-1 tumors; experiment: Low dose HTI-286 and L-NNA on various xenografts (FIG. 10); assay type: in vivo, mice; settings: HTI-286 1 mg/kg without L-NNA; L-NNA 10 mg/kg without HTI-286
Description: FIG. 10A-10F Quantification of the effects of C. novyi-NT plus low doses of HTI-286 and L-NNA on various xenografts (HCT116, HuCC-T1, HT-29, SW480, B16, and DLD-1, respectively).
[…] […] The p-values are based on comparisons between L-NNA+HTI-286 and L-NNA+HTI-286+C. novyi-NT spores. The p-value is indicated only when the result was statistically significant.
All animal protocols were designed in accordance with the Guide for the Care and Use of Laboratory Animals (NIH Publication 86-23) and were approved by the Johns Hopkins University Institutional Animal Care and Use Committee. Six to eight week old mice were implanted subcutaneously on one flank with 3 to 6 million cancer cells. Establishment of tumors of 150 to 500 mm3 took 8 to 21 days, depending on the cell type. C. novyi-NT spores (300×106) and anti-microtubule agents were generally administered by a single intravenous injection through the tail vein in a total volume of 300 to 500 ul phosphate-buffered saline (PBS). Quantitative assessment of tumor growth was performed by measuring subcutaneous tumor grafts (major and minor axis) using electronic calipers. Tumor volume was calculated using the equation: length×width2×0.5. Progression free survival was defined as the length of time following treatment before any increase in tumor volume was observed. Mice were considered “cured” if no tumor was evident three months after treatment. […]

| SMILES | increase in number of C. novyi-NT bacteria in tumor when co-injected with drug [1] [fold] | Weight Loss (%) [2] [%] | Effect with C. novyi-NT ([3]; 12.5 mg/kg × 1 (iv) with 3×108 C. novyi-NT spores iv) | Effect with C. novyi-NT ([3]; 25 mg/kg × 1 (iv) with 3×108 C. novyi-NT spores iv) | Effect with C. novyi-NT ([3]; 50 mg/kg × 1 (iv) with 3×108 C. novyi-NT spores iv) | Effect with C. novyi-NT ([3]; 75 mg/kg × 1 (iv) with 3×108 C. novyi-NT spores iv) | Effect alone ([3]; 12.5 mg/kg × 1 (iv)) | Effect alone ([3]; 25 mg/kg × 1 (iv)) | Effect alone ([3]; 50 mg/kg × 1 (iv)) | Effect alone ([3]; 75 mg/kg × 1 (iv)) | # dead (treatment-related deaths) ([4]; drug dose 25.0 mg/kg) | # dead (treatment-related deaths) ([4]; drug dose 50.0 mg/kg) | # dead (treatment-related deaths) ([4]; drug dose 75.0 mg/kg) | blood flow to the tumors (Hoechst 33342 labelling) [5] | Glut-1 expression (hypoxia marker) in tumors [6] | effects on tumor growth when administered without the other agent [7] | effect of L-NNA added to C. novyi-NT alone or high doses of HTI-286 plus C. novyi-NT [3] | effect of L-NNA on responses to low doses of HTI-286 ([3]; L-NNA 10 mg/kg) |
| --- | --- | --- | --- | --- | --- | --- | --- | --- | --- | --- | --- | --- | --- | --- | --- | --- | --- | --- |
| CC(=O)O[C@@]12CO[C@@H]1C[C@H](O)[C@@]1(C)C(=O)[C@H](O)C3=C(C)[C@@H](OC(=O)[C@H](O)[C@@H](NC(=O)OC(C)(C)C)c4ccccc4)C[C@@](O)([C@@H](OC(=O)c4ccccc4)[C@H]21)C3(C)C [docetaxel] | 1.6 | 11.0 | ++ (10% to 50% shrinkage in tumor volume relative to pre-treatment size) | +++ (>50% shrinkage in tumor volume relative to pre-treatment size) | ++++ (>20% cures) | ++++ (>20% cures) | + | ++ (10% to 50% shrinkage in tumor volume relative to pre-treatment size) | ++++ (>20% cures) | +++ (>50% shrinkage in tumor volume relative to pre-treatment size) | 0 | 0 | 0 | no observable effects | No increase | – | – | – |
| NC(=NCCC[C@H](N)C(=O)O)N[N+](=O)[O-] [L-NNA] | – | – | – | – | – | – | – | – | – | – | – | – | – | – | – | no significant effects on tumor growth | added little | significantly enhanced |
